Data on one compound can be found in article PMC6811774, “Potent, selective, and subunit‐dependent activation of TRPC5 channels by a xanthine derivative” (British Journal of Pharmacology, 2019).

“And” between values parts separate entries of the source, which are not always exact repeats. Equal entries are not always repeated. Where two headings read alike, the source gives them in different places.

The assay has as its target T1, TRPC5:C5 channels (hTRPC5) (Homo sapiens, UniProt Q9UL62).
T1 construct: expressed in transfected cells
T1 sequence (Q9UL62 1-973): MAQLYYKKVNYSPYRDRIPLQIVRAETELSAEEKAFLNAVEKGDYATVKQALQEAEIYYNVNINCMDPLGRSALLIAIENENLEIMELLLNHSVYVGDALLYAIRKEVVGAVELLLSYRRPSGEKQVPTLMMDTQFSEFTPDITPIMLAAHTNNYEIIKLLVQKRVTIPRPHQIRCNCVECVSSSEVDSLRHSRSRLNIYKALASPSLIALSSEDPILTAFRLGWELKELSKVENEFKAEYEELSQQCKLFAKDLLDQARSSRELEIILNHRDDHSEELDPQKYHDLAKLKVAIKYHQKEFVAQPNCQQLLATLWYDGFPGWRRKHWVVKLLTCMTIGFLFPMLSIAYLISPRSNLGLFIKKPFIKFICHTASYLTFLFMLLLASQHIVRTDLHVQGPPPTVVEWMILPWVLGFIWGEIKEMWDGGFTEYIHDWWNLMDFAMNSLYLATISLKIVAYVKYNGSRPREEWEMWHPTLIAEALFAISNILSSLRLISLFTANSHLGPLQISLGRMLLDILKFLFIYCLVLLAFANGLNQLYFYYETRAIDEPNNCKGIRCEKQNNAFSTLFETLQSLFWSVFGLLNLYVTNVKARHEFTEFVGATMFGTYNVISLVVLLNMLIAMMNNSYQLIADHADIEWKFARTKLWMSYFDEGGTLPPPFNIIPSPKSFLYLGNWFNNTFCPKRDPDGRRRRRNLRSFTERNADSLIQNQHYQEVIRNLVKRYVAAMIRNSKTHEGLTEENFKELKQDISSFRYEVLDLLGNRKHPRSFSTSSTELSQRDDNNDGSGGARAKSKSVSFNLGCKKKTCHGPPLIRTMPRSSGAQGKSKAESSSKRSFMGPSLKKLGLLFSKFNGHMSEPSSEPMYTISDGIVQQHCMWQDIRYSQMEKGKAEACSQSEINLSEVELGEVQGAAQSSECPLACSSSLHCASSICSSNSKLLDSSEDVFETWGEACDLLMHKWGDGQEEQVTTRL
Put plainly: [Ca2+]i measurement (Fura-2, FlexStation) in (Tet+) HEK T-REx cells expressing hTRPC5. It is filed as cell-based. Here is the method: HEK T‐REx™ cell line was transfected with TRPC5‐SYFP2 or TRPC4‐SYFP2 using FuGENE® HD transfection reagent. After 48 hr, cells were put under antibiotic selection using 400 μg·ml^−1 zeocin and 10 μg·ml^−1 blasticidin S (Invivogen, San Diego, California, USA). Medium changes were carried out regularly to remove dead cells. HEK T‐REx cells expressing tetracycline‐inducible human TRPC5, TRPC4–C1, and TRPC5–C1 were created as described previously (Akbulut et al., 2015; Ludlow et al., 2017; Rubaiy, Ludlow, Henrot, et al., 2017). TRPC5–C1 and TRPC4–C1 concatemers allow expression of functional channels with defined 2:2 stoichiometry that display ion permeability and current–voltage relationships distinct from those of homomeric TRPC4:C4 or TRPC5:C5 channels and consistent with those obtained upon co‐expression of TRPC1 with TRPC4 or TRPC5 (Ludlow et al., 2017; Rubaiy, Ludlow, Bon, & Beech, 2017; Rubaiy, Ludlow, Henrot, et al., 2017). Cells were cultured in DMEM‐F12 GlutaMAX (Invitrogen, Paisley, UK) containing 10% FBS (Sigma‐Aldrich, Gillingham, UK), with the addition of blasticidin (10 μg·ml^−1) and zeocin (400 μg·ml^−1) to maintain the stable incorporation of the tetracycline repressor and the channel of interest, respectively. Expression of proteins was induced by the addition of tetracycline (1 μg·ml^−1, 24 hr). Cells were maintained in a humidified incubator with 5% CO2 at 37°C. HEK 293 cells stably expressing tetracycline‐regulated human http://www.guidetopharmacology.org/GRAC/ObjectDisplayForward?objectId=494 were prepared similarly and have also been described previously (McHugh, Flemming, Xu, Perraud, & Beech, 2003). For experiments using transient co‐expression of TRPC1 and TRPC5, HEK cells at 40–60% confluency were transfected with pIRES2‐AcGFP1 and pIRES2‐DsRed‐Express2 plasmids containing human TRPC1 and TRPC5, respectively, using Lipofectamine 3000 (ThermoFisher Scientific, Yokohama, Japan). All experiments using transient expression were performed within 48 hr after transfection. A498 cells were cultured in Minimum Essential Medium containing Earle's salts (ThermoFisher Scientific, Loughborough, UK), supplemented with 10% FBS and penicillin–streptomycin (100 units per ml^−1, 100 μg·ml^−1; ThermoFisher Scientific, Loughborough, UK). CHO cells stably expressing http://www.guidetopharmacology.org/GRAC/ObjectDisplayForward?objectId=510 were maintained in Ham's Nutrient Mixture F12 (ThermoFisher Scientific, Loughborough, UK) supplemented with 10% FBS, penicillin–streptomycin, and 1 mg·ml^−1 G418 (InvivoGen, San Diego, California, USA). For experiments using hTRPC3 and hTRPC6, WT HEK 293 cells were transfected with hTRPC3 (Naylor et al., 2016) or hTRPC6 (cloned into pcDNA3) using jetPRIME® transfection reagent (VWR, Lutterworth, UK). […]

In the case of `Cn1c(=O)n(CCCO)c(=O)c2c1nc(Oc1ccc(Cl)c(OC(F)(F)F)c1)n2Cc1ccc(Cl)cc1` [AM237], the “Concentration leading to a sustained increase in [Ca2+]i” value (cells overexpressing TRPC5 or TRPC5-SYFP2) is listed as not below 3 nM. Further, the EC50 (commonly the concentration needed to bring the measured effect to its halfway point) reads like this: (hTRPC5, response at 250–295 s vs baseline, read-out: EC50, activation (increase in [Ca2+]i)) 20 nM; (range over TRPC5 and TRPC5-SYFP2 experiments, read-out: EC50, TRPC5:C5 activation in [Ca2+]i assay (summary range)) 15 to 20 nM and 10 to 20 nM. For the same compound, the “Hill slope, activation” value (hTRPC5 concentration–response curve) worked out at 1.7.
